Results: paper PMC11572954 (Science (New York, N.Y.), 2024)

What was measured:
[1] = target: T1, PPARδ (Homo sapiens, UniProt Q03181); experiment: DiscoverX cell-based reporter assay, agonist mode
T1 sequence (Q03181 1-441): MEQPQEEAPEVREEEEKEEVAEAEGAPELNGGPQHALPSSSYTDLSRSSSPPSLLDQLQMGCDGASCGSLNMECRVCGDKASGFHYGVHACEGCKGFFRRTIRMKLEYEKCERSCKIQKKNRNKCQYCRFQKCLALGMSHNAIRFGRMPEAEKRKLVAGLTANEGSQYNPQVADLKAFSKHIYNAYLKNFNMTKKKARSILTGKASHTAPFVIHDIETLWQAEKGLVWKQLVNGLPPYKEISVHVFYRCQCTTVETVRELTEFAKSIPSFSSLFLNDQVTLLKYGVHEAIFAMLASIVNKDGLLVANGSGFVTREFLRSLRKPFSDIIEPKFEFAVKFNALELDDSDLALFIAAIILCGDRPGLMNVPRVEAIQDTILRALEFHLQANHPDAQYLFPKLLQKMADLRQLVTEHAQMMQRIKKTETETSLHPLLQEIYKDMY

[2] = target: T2, PPARα (Homo sapiens, UniProt Q07869); experiment: DiscoverX cell-based reporter assay, agonist mode
T2 sequence (Q07869 1-468): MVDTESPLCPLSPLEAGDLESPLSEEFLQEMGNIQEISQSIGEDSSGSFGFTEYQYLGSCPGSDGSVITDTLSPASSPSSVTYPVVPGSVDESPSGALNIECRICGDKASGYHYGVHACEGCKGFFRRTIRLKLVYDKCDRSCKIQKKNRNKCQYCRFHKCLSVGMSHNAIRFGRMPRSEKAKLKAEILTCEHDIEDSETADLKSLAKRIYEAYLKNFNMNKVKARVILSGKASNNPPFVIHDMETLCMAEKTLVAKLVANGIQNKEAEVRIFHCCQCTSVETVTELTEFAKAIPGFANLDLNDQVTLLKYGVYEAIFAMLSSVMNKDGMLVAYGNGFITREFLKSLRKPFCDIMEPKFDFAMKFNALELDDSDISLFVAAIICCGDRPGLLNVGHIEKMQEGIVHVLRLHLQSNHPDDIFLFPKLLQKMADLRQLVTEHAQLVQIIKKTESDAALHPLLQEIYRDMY

[3] = target: GPR84 (Homo sapiens, UniProt Q9NQS5); experiment: DiscoverX cell-based reporter assay, agonist mode
[4] = target: T3, F. prausnitzii FAAH (CGOBPECO_01956) (Faecalibacterium prausnitzii, UniProt A0A564UB45); experiment: LC-MS hydrolysis rate assay; format: biochemical; conditions: 100 uM OEA
T3 sequence (A0A564UB45 31-399): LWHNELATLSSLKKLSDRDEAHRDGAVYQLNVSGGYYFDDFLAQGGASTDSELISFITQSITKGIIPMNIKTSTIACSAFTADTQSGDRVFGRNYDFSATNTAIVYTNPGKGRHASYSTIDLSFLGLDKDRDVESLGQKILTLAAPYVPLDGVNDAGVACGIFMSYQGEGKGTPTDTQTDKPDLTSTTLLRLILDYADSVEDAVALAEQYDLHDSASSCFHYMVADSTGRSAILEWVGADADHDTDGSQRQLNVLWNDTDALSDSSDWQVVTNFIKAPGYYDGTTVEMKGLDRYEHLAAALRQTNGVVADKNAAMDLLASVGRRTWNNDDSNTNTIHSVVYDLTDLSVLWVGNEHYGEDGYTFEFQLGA

GPR84, sequence (Q9NQS5 whole entry): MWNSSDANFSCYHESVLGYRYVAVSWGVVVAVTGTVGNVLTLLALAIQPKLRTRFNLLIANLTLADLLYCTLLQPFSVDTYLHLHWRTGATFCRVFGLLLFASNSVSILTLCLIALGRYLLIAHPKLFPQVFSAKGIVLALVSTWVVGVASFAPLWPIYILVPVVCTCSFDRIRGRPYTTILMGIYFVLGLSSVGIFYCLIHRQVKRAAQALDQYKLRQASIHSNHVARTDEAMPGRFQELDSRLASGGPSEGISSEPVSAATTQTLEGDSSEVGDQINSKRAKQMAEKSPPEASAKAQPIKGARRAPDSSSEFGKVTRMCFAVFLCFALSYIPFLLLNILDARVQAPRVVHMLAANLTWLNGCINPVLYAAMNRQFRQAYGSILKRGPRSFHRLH

## CCCCCCCC/C=C\CCCCCCCC(=O)NCCO [OEA]
[1]
  % activation at 10 μM: OEA was a strong agonist of PPARδ and to a lesser extent PPARα
[2]
  % activation at 10 μM: OEA was a strong agonist of PPARδ and to a lesser extent PPARα
[3]
  % activation at 10 μM: GPR84, which was strongly activated by OEA
[4]
  LC-MS hydrolysis rate assay: hydrolytic activity of FAAH against PEA, OEA, C18:1-Arg, and C18:1-Lys (Fig. 2D)
